Data on eight compounds can be found in patent US7045551B2 (Bristol-Myers Squibb Company, priority 2002, dated 2006).

A word on the EC50: it is the concentration at which the effect is half-maximal.

The target in assay [1] is voltage-gated K+ channel KCNQ2 (Homo sapiens, UniProt O43526). Nature of the assay: Thallium flux assay for openers of KCNQ potassium channels. It is filed as cell-based. The following applies: 10 point concentration series, concentration required to yield 50% of the maximal response. The text has this: A thallium flux assay was used to detect and characterize openers of KCNQ potassium channels. The thallium assay is generally described in International application WO 02/31508 published Apr. 18, 2002. More specifically, the thallium influx assay to detect compounds that block or open the voltage-gated K^+ channel KCNQ2 is described in Example IV of the published WO 02/31508 application.
For data analysis, the amplitude of the average of the negative controls was subtracted from all wells. The amplitudes of the test compounds were then compared to the value of four standard deviations of the negative control wells. The lowest concentration of a test compound sufficient to generate a signal amplitude greater than or equal to four standard deviations from the amplitude of the negative controls was defined as the minimal active concentration.
For generating EC50 values, compounds were serially diluted in 1:3 volume increments to produce a 10 point concentration series. EC50 values were calculated by fitting the resulting amplitudes to a single-site logistic equation. EC50 was defined as the concentration of test compound required to yield 50% of the maximal response. Maximal response (Maximal opening) was the largest signal amplitude above the negative control generated by any concentration of a test compound.

Another assay deals with T1, mKCNQ2 channels (Mus musculus, UniProt Q9Z351).
T1 construct: expressed in transfected cells
Nature of the assay: Whole-cell patch-clamp recordings of mKCNQ2 currents. It is filed as cell-based. The settings on record: for EC50: HEK 293 stable cell line expressing mKCNQ2, @ −40 mV, room temperature; for Imax (%): HEK 293 stable cell line expressing mKCNQ2, Imax from Hill-type curve fit. The method, then:
Whole-cell patch-clamp recordings were made from an HEK 293 stable cell line expressing mKCNQ2 channels, maintained in culture for 1–2 days. Patch pipettes had initial resistances of 2.5–4 MΩ. Currents were recorded with an EPC-9 amplifier (HEKA, Lambrecht, Germany) controlled with software (Pulse, HEKA) run on a standard lab PC. Series resistance compensation was used during current recording, and set at 80%. The series resistance (R) and cell capacitance (C) were determined electronically by subtracting the capacitive currents at the onset and offset of a 5 mV voltage step. The cancellation of whole-cell capacitive transients was virtually complete in all cells. Analog current signals were low-pass filtered at 2.9 kHz using a four-pole Bessel filter −3 dB) and stored on a local network server computer at a sampling rate of […]. All recordings were performed at room temperature (20–22° C.). The pipette solution contained (mM): KCl, 150; CaCl2, 2.5; EGTA, 5; MgCl2, 1; HEPES, 10; pH to 7.3 with KOH, and Osmolality of 290–300 mOsm. The extracellular solution contained (mM): NaCl, 140; KCl, 2.5; CaCl2, 2.5; MgCl2, 1; glucose, 10; HEPES, 10; pH to 7.3 with NaOH, and Osmolality of 305–310 mOsm
Concentration response data were generated by measuring the difference in the steady-state amplitude of current in the presence of compound at the end of a 600 ms voltage-clamp step from a holding potential of −80 mV. The concentration-response data were fitted with Hill-type equations: I=Imax/(1+EC50/[A]^nH), where I is the steady-state current at a given concentration of agonist [A]; and Imax, EC50 and nH are parameters estimated from the curve fit. In some cases the concentration-response data were fitted with equations consisting of the sum of two Hill-type components. Current-voltage (I/V) relationships for agonist-evoked currents were obtained by performing 600 ms voltage steps (−110 mV to +40 mV) in the absence and presence of agonist.
(In patch-clamp work, channel activity is measured electrically.)

`O=C(/C=C/c1cccc(F)c1)N[C@@H](CO)c1ccc2ccccc2c1` [Example 47, (R)-3-(3-Fluoro-phenyl)-N-(2-hy-droxy-1-naphthalen-2-yl-eth-yl)-acrylamide]: in assay [1], a half-maximal response (EC50) required 39 nM.

Consider `O=C(/C=C/c1ccc(F)cc1F)NC(CO)c1cccc(N2CCOCC2)c1` (stereo in doubt) [Example 18, (R)-3-(2,4-Difluoro-phenyl)-N-[2-hydroxy-1-(3-morpho-lin-4-yl-phen-yl)-ethyl]-acrylamide], for which, on mKCNQ2 channels, the EC50 was determined as 1.46 µM and the “Imax (%)” value was determined as 820%.

The compound `O=C(/C=C/c1ccc(F)c(F)c1)N[C@@H](CO)c1ccc2ccccc2c1` [Example 58, (R)-3-(3,4-Difluoro-phen-yl)-N-(2-hydroxy-1-naph-thalen-2-yl-ethyl)-acryl-amide] displayed an EC50 in assay [1] of 892 nM.

Take `O=C(/C=C/c1ccc(F)cc1F)N[C@@H](CO)c1ccc2ccccc2c1` [Example 55, (R)-3-(2,4-Difluoro-phen-yl)-N-(2-hydroxy-1-naph-thalen-2-yl-ethyl)-acryl-amide]: it took 144 nM to reach a half-maximal effect in assay [1] (EC50).

On to `O=C(/C=C/c1ccc(F)cc1F)N[C@H](c1ccc2ccccc2c1)[C@H](O)CO` [Example 111, (1R,2S)-3-(2,4-Difluoro-phen-yl)-N-(2,3-dihydroxy-1-naph-thalen-2-yl-propyl)-acryl-amide], for which the EC50 in assay [1] was 980 nM.

On to `O=C(/C=C/c1ccc(F)cc1)N[C@@H](CO)c1ccc2ccccc2c1` [Example 48, (R)-3-(4-Fluoro-phenyl)-N-(2-hy-droxy-1-naphthalen-2-yl-eth-yl)-acrylamide], for which the EC50 stood at 0.619 µM on mKCNQ2 channels and 503 nM in assay [1]. Besides, the “Imax (%)” value on mKCNQ2 channels was determined as 981%.

Compound `O=C(/C=C/c1ccccc1)N[C@@H](CO)c1ccc2ccccc2c1` [Example 49] came in with an EC50 in assay [1] of 354 nM.

For `O=C(/C=C/c1ccccc1Cl)N[C@H](c1ccc2ccccc2c1)[C@H](O)CO` [Example 106, (1R,2S)-3-(2-Chloro-phenyl)-N-(2,3-dihydroxy-1-naph-thalen-2-yl-propyl)-acryl-amide], the EC50 in assay [1] was determined as 1440 nM.
